From ChEMBL document CHEMBL4619793, “Pyrazolo[4,3-d]pyrimidine Derivatives as a Novel Hypoxia-Inducible Factor Prolyl Hydroxylase Domain Inhibitor for the Treatment of Anemia” (ACS Med Chem Lett, 2020) come the findings set out here.

In brackets after ≈: the same amount, converted by molar mass. Activity calls are given as the source filed them. The rule behind the calls is not given here.

What is called solubility is the concentration that dissolves in the medium under given conditions. Read a high solubility as much dissolved substance. One may read the Cmax as the highest concentration seen after dosing. As a reminder, the AUC(0-inf) is total exposure, with the tail of the curve extrapolated. Low values mean less exposure, high ones more exposure. A word on the bioavailability: it is dose-corrected exposure relative to a reference, in per cent. A word on the clearance: it is the volume of plasma or blood freed of the substance per unit of time.

The nature of data set [1]: Solubility of the compound in buffer at pH 6.5. Type of data set: physicochemical.
The subject of data set [2] is Mus musculus. Briefly: In vivo inhibition of HIF-PHD2 in ICR mouse assessed as serum erythropoietin level at 10 mg/kg, po administered as single dose measured after 6 hrs by immunoassay (reference value: 125 pg/ml). Format: functional.
For data set [3], the system named is Mus musculus. The data set is described as follows: In vivo inhibition of HIF-PHD2 in ICR mouse assessed as serum erythropoietin level at 30 mg/kg, po administered as single dose measured after 6 hrs by immunoassay (reference value: 125 pg/ml). Type of data set: functional.
Data set [4] in a line: Cmax in Sprague-Dawley rat at 10 mg/kg, po. Format: ADME, organism-based. On the set-up: dose 10 mg/kg, route oral. The following applies: in vivo.
The nature of data set [5]: AUC (0 to infinity) in Sprague-Dawley rat at 10 mg/kg, po. Type of data set: ADME, organism-based. Details: dose 10 mg/kg, time infinity, route oral. The note with it: in vivo.
Data set [6] is described as follows: Oral bioavailability in Sprague-Dawley rat at 10 mg/kg. Type of data set: ADME, organism-based. The following applies: in vivo.
Data set [7] in a line: Cmax in Sprague-Dawley rat at 0.5 mg/kg, iv. Format: ADME, organism-based. Details: dose 0.5 mg/kg, route intravenous. The following applies: in vivo.
A short description of data set [8]: AUC (0 to infinity) in Sprague-Dawley rat at 0.5 mg/kg, iv. Details: dose 0.5 mg/kg, route intravenous, time infinity. The following applies: in vivo. Format: ADME, organism-based.
Data set [9] is described as follows: Total clearance in Sprague-Dawley rat at 0.5 mg/kg, iv. Type of data set: ADME, organism-based. The following applies: in vivo.
Data set [10] in a line: Volume of distribution at steady state in Sprague-Dawley rat at 0.5 mg/kg, iv. Format: ADME, organism-based. The following applies: in vivo, read-out: Vdss.
For data set [11], the target named is Egl nine homolog 1 (Rattus norvegicus) (UniProt P59722). Briefly: In vivo inhibition of HIF-PHD2 in Sprague-Dawley rat assessed as increase in serum erythropoietin level at 10 mg/kg, po administered as single dose measured after 8 hrs by immunoassay. Type of data set: functional, organism-based.
Chain of Egl nine homolog 1 (Rattus norvegicus) (P59722 whole entry): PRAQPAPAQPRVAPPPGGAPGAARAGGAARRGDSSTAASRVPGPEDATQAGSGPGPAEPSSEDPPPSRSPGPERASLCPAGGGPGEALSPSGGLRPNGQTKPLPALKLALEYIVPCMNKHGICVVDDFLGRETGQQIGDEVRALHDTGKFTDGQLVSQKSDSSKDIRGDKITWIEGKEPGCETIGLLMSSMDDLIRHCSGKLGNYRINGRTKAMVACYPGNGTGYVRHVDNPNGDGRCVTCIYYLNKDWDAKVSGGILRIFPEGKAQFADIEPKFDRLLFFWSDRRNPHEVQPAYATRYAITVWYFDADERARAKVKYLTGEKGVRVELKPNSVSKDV
Data set [12] in a line: Cmax in Sprague-Dawley rat at 1 mg/kg, po. Details: dose 1 mg/kg, route oral. Type of data set: ADME, organism-based. The note with it: in vivo.
The nature of data set [13]: AUC (0 to infinity) in Sprague-Dawley rat at 1 mg/kg, po. Format: ADME, organism-based. Details: dose 1 mg/kg, time infinity, route oral. The note with it: in vivo.
The nature of data set [14]: Oral bioavailability in Sprague-Dawley rat at 1 mg/kg. Format: ADME, organism-based. The note with it: in vivo.
The nature of data set [15]: Cmax in Sprague-Dawley rat at 1 mg/kg, iv. Type of data set: ADME, organism-based. Details: dose 1 mg/kg, route intravenous. The note with it: in vivo.
Data set [16] in a line: AUC (0 to infinity) in Sprague-Dawley rat at 1 mg/kg, iv. Format: ADME, organism-based. Details: dose 1 mg/kg, time infinity, route intravenous. The following applies: in vivo.
Data set [17] in a line: Total clearance in Sprague-Dawley rat at 1 mg/kg, iv. Type of data set: ADME, organism-based. The following applies: in vivo.
The nature of data set [18]: Volume of distribution at steady state in Sprague-Dawley rat at 1 mg/kg, iv. Format: ADME, organism-based. The note with it: in vivo, read-out: Vdss.
In data set [19] the test system is Rattus norvegicus. Briefly: Antianemic activity in kidney excised-induced renal anemia Sprague-Dawley rat model assessed as improvement in blood hemoglobin level at 1 mg/kg, po administered once daily for 4 weeks measured 2 week post initial dose. Type of data set: functional, organism-based.
The subject of data set [20] is Rattus norvegicus. Briefly: Antianemic activity in kidney excised-induced renal anemia Sprague-Dawley rat model assessed as improvement in blood hemoglobin level at 2 mg/kg, po administered once daily for 4 weeks measured 1 week post initial dose. Format: functional, organism-based.
Data set [21] has as its system Mus musculus. The data set is described as follows: In vivo inhibition of HIF-PHD2 in ICR mouse assessed as serum erythropoietin level at 100 mg/kg, po administered as single dose measured after 6 hrs by immunoassay (reference value: 146 pg/ml). Format: functional.

In turn, `O=C(O)c1cnn(-c2nc3cnn(Cc4ccc(-c5ccc(F)cc5)c(F)c4)c3c(=O)[nH]2)c1` had a solubility in [1] of 49 µg/mL (≈ 109 µM).
For the compound `O=C(O)c1cnn(-c2nc3cnn(Cc4ccc(-c5ccccc5)cc4)c3c(=O)[nH]2)c1`, the Activity in [2] was determined as 63000 pg/mL; in data set [3], 89000 pg/mL. The solubility in data set [1] amounted to 9.5 µg/mL (≈ 23 µM). Also, the Cmax in data set [4] worked out at 2710 ng/mL; in data set [7], 4910 ng/mL. In addition, the figures for the AUC(0-inf) in data set [5] and in data set [8] were 17800 ng·h/mL and 5560 ng·h/mL, respectively. In [6], the bioavailability amounted to 16%. Also, in data set [9], the clearance is 1.52 mL/min/kg. In data set [10], the Vd was determined as 0.197 L/kg.
Turning to `C[C@@H](c1ccc(Cl)c(Cl)c1)n1ncc2nc(-n3cc(C(=O)O)cn3)[nH]c(=O)c21`, the solubility in data set [1] stood at 75 µg/mL (≈ 179 µM).
In [1], `C[C@@H](c1cc(Cl)ccc1Cl)n1ncc2nc(-n3cc(C(=O)O)cn3)[nH]c(=O)c21` registered a solubility greater than 1000 µg/mL. Besides, in data set [11], the inhibition entry is “Active”. Moreover, the Cmax in data set [12] was 1840 ng/mL; in [15], 12400 ng/mL. In addition, the AUC(0-inf) in data set [13] came to 23500 ng·h/mL; in data set [16] it was 30400 ng·h/mL. In [14], this compound registered a bioavailability of 77%. In data set [17], the clearance was 0.567 mL/min/kg. Besides, in data set [18], the Vd came to 0.249 L/kg. In addition, the outcome in data set [19] and in data set [20] was Active.
Regarding `O=C(O)c1cnn(-c2nc3cn(Cc4ccc(-c5ccccc5)cc4)nc3c(=O)[nH]2)c1`, the Activity in data set [21] turned out to be 450 pg/mL.
In [1], `O=C(O)c1cnn(-c2nc3cnn(Cc4ccc(Cl)c(Cl)c4)c3c(=O)[nH]2)c1` gave a solubility of 88 µg/mL (≈ 217 µM).
